Each structure is given as a SMILES string. Like-named read-outs stand apart in the source and are kept apart here. Residues, ends and D or L forms follow the SMILES beside them. A value given as a limit tells only on which side of the number the result lay.

Experimental findings from patent US9670482B2, “Multispecific peptides” (BICYCLE THERAPEUTICS LIMITED, priority 2009, dated 2017) are described below.

In one data set the target is T1, Kallikrein (Homo sapiens, UniProt P03952).
T1 construct: purchased Sigma Aldrich
As to the kind of experiment: Kallikrein assays (Z-Phe-Arg-amc substrate). Format: biochemical. The protocol:
Enzymes were purchased from Sigma Aldrich and substrates from Bachem A G. The assay buffer is composed of 10 mM Tris pH 7.4, 150 mM NaCl, 10 mM MgCl2, 1 mM CaCl2, 0.1% BSA, 0.01% Triton X100 and 5% DMSO. Enzymes are incubated with inhibitors for 30 minutes at RT prior to addition of substrate. All experiments were recorded at 30° C. for 90 minutes.
Assays were performed on a BMG Pherastar plate reader at wavelengths of exc/em 350/450 nm. Kallikrein was bought as a solution of 1080 μg/mL and diluted to a working concentration of 0.3 nM in assay buffer. Substrate Z-Phe-Arg-amc was solubilised at the stock concentration of 10 mM in DMSO and diluted to a working concentration of 300 μM with assay buffer. Inhibitors were solubilised in assay buffer to a stock concentration of 60 μM. 50 μL of each reagent is introduced in wells for a final volume of 150 μL per well. Final concentration of kallikrein in assay is 0.1 nM and substrate is 100 μM.
Final concentrations of inhibitors were: 0.5 nM, 1 nM, 2 nM, 5 nM, 8 nM, 10 nM, 20 nM, 50 nM, 80 nM, 100 nM, 200 nM, 500 nM, 800 nM, 1 μM, 2 μM, 5 μM, 8 μM, 10 μM and 20 μM. The initial rate of the reaction is obtained by plotting fluorescence=f (time) data and by fitting a linear trendline for each concentration of inhibitor. The inhibition curves are obtained by plotting initial rate=f ([I]) and IC50 values can be evaluated.

In the next data set the target is T2, MDM2 (res 2-125) (Homo sapiens, UniProt Q00987).
T2 construct: made in house
As to the kind of experiment: Fluorescence anisotropy titration with MDM2. The format is binding. The protocol:
Titration experiments were run on a Horiba Jobin Yvon fluorimeter equipped with the Hamilton Microlab titrator controlled by laboratory software. The λex and λem used were 295 nm and 350 nm, respectively. The slit widths for excitation and emission were 5 nm and 15 nm and the integration time 10 s was used for each measurement. The intrinsic fluorescence of tryptophan in peptides 10, 48 was used to measure their binding affinity for MDM2 (res 2-125). The experiments were performed at 23 C.° in PBS, 5 mM DTT. Usually 250 ul of MDM2 (150 uM) was titrated into 1.2 ml of peptide (1 uM). Titration data were analyzed with a standard 1:1 binding model by using the quadratic solution to the equilibrium Kd=[A][B]/[AB]. […] The fitting equation contained an extra term to account for linear drift.
Mdm2 binds the complete PEP48 peptide with good affinity. We now determined whether Mdm2 binding is still functional within the Fmoc-Trp-linker-bicyclic derivative. 250 μL of 18.8 μM Mdm2 (expressed and purified as described in Teufel et al, PNAS 2007) was titrated into 1.2 ml of 500 nM peptide. A strong binding event occurred (Kd<1 μM), however, the data could not be fitted as the Kd was too far below the concentration of peptide employed in the experiment (FIG. 9). Lower concentrations of peptide could not be used due to technical limitations. Accurate determination of dissociation constants of this peptide to Mdm2 will require a better fluorophore than Fmoc (see above), or different methodologies such as isothermal titration calorimetry (ITC).

Another data set in a line: Solubility in water. The format is physicochemical.
Data set [1] addresses bovine serum albumin (BSA) (Bos taurus, UniProt P02769). Description: Fluorescence anisotropy titration with BSA. As to conditions: Kd for BSA, fluorescence anisotropy in PBS. The text has this:
For determining the affinity constant (Kd) of a fluorophore to target protein, we chose fluorescence anisotropy titrations.
Excitation was specific for coumarin (328 nm), and emission at 393 nm.
To determine whether a neighbouring group (here, Gly) on Fmoc affects binding to BSA, a similar experiment was run with Fmoc-Gly-OH (Nova Biochem). The intrinsic fluorescing properties of Fmoc were used for the anisotropy experiments.
To determine whether a neighbouring hydrophobic bulky group has an enhancing or adverse effect on BSA binding, Fmoc-Phe-OH was tested as above.
The solid phase resin employed was PAL-PEG-PS from Applied Biosystems. […] All peptides were capped with an N-terminal Fmoc, and a C-terminal amide (NH2). After cleavage, peptides were lyophilised, and solubilised in 5 mL of DMF. 100 μl of this was loaded onto an analytical C18 column using a Waters HPLC, using methanol and water (both in the presence of 0.1% TFA) as solvents. […] The peptide concentration in the cuvette was 200 nM.
Excitation was at 299 nm (to minimise Trp absorption), and emission at 320 nm. Slit widths were at 5 and 12 nm, respectively.
Peptide concentrations were estimated by the absorbance at 299 nm, using the extinction coefficient of 4700/M/cm. Excitation was at 299 nm, and emission was set to 320 nm, at slit widths of 5 and 12 nm, respectively.

T1 sequence (P03952 20-638): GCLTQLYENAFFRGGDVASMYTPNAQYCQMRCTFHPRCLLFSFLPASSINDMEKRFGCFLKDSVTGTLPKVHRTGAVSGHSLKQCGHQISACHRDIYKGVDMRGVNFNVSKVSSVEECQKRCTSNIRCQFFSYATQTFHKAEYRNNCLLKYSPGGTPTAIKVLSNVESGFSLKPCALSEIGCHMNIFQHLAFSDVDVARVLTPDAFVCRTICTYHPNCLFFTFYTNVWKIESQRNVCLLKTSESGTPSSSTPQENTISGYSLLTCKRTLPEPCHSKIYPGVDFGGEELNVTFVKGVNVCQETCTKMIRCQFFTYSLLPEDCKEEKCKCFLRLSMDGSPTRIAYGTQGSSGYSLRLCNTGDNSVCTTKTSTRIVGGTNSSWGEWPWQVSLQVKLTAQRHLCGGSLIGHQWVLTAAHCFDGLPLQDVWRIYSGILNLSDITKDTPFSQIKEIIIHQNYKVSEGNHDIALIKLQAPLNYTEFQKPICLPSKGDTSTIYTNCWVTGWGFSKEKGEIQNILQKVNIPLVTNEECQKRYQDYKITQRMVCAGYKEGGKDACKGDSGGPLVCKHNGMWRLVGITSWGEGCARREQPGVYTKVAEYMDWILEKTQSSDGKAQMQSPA
T2 sequence (Q00987 2-125): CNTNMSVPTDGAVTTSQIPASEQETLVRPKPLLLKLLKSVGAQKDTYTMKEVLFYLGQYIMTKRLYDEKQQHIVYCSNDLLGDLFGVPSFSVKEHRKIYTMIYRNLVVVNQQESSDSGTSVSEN
Chain of bovine serum albumin (BSA) (P02769 25-607): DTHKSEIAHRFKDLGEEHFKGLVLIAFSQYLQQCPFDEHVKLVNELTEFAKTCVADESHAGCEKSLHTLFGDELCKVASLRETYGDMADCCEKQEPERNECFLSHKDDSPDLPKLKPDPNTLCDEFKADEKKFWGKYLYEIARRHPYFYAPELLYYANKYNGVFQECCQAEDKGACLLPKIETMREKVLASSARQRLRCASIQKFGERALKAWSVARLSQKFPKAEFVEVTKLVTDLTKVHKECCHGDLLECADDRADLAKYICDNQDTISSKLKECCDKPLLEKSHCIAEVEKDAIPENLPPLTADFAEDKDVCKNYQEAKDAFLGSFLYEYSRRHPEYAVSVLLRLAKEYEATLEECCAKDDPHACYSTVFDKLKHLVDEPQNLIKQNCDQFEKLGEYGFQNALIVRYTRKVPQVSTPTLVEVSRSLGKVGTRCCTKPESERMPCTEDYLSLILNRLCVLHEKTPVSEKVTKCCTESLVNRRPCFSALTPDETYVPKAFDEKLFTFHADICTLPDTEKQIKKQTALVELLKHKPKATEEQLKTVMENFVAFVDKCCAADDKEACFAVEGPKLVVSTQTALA

With `CC(C)[C@@H]1NC(=O)[C@@H](NC(=O)[C@H](C)NC(=O)CNC(=O)CNC(=O)CNC(=O)[C@H](Cc2c[nH]c3ccccc23)NC(=O)OCC2c3ccccc3-c3ccccc32)CSCc2cc3cc(c2)CSC[C@H](NC(=O)[C@H]([C@@H](C)O)NC(=O)[C@H](Cc2c[nH]c4ccccc24)NC(=O)CNC(=O)[C@H](Cc2ccccc2)NC(=O)[C@H](CCCNC(=N)N)NC1=O)C(=O)N[C@@H](CO)C(=O)N[C@@H](CC(=O)O)C(=O)N[C@@H](CCCNC(=N)N)C(=O)N[C@@H](Cc1ccccc1)C(=O)N[C@@H](CCCNC(=N)N)C(=O)N[C@@H](CC(N)=O)C(=O)N[C@H](C(=O)NCC(N)=O)CSC3` [FmocPEP48L1-PK15L1 bicyclic] (HELM PEPTIDE1{[O=C(OCC1c2ccccc2-c2ccccc21)[*:2]].W.G.G.G.A.C.V.R.F.G.W.T.C.S.D.R.F.R.N.C.G.[am]}|CHEM1{[c1c(C[*:1])cc(C[*:3])cc1C[*:2]]}$PEPTIDE1,CHEM1,7:R3-1:R1|PEPTIDE1,CHEM1,14:R3-1:R2|PEPTIDE1,CHEM1,21:R3-1:R3$$$V2.0), the IC50 against Kallikrein (IC50 for inhibition of kallikrein activity, 0.1 nM kallikrein, 100 μM substrate, 30° C.) was 17 µM; at Kallikrein (IC50 for inhibition of kallikrein, preliminary experiment, restated in Example 3) it was about 17 µM. In addition, the Kd on MDM2 (res 2-125) was under 1 µM; at MDM2 (res 2-125) (read-out: Kd for Mdm2, 18.8 μM Mdm2 titrated into 500 nM peptide, data could not be fitted (FIG. 9)) it was under 1 µM; in data set [1] it was about 0.06 µM. Further, in the data set “Solubility in water”, the solubility in water result is “not well soluble in water”.
